The target of series [1] is T1, PD-1/PD-L1 binding (Homo sapiens, UniProt Q9NZQ7).
T1 construct: PD-1: 10377-H08H
Description: ELISA competition of peptides with PD-1 for binding to PD-L1. To be noted: n = 3, effect increases with peptide concentration. The protocol: After seven phages were grown and purified, the solution was diluted 10 times to produce eight gradients. To ascertain the phage’s affinity for PD-L1, an ELISA test was run. Briefly, 96-well plates were filled with 150 µL of PD-L1 ([…]) in assay diluent (BioLegend, San Diego, CA), and incubated at 4°C overnight. 5% BSA in water was used to block the wells for two hours at 4°C. Following washing, 100 µL of phage diluent was added to each well, and they were shaken for two hours at room temperature. The wells were then treated with HRP-conjugated anti-M13 antibody at dose of 1:5000. With 100 µL of HRP substrate, the reaction was observed, and the OD410 was determined. By deducting the OD value of each phage binding to BSA-coated wells from the OD value of that phage binding to PD-L1, the specific binding of each phage to PD-L1 was computed. Three duplicate runs of this assay were made. GraphPad Prism 6 software was used to compute each phage binding affinity by nonlinear regression and convert it to a Scatchard plot. ELISA was used to evaluate the candidate peptides capacity to inhibit PD1/PD-L1 binding. The subsequent stages were the same as those previously outlined. Following incubation, OD410 was determined by goat anti-rabbit monoclonal antibody that had been HRP-labeled and rabbit anti-human PD-L1 protein monoclonal antibody.
To assess the effect of PPL-C peptide interference, PD-L1 binding to PD-1 was investigated using ELISA and cell-based analysis. For the ELISA, 100 μL of mouse PD-L1 in PBS was coated in each well of a 96-well plate and incubated the plate at 4°C overnight. On the second day, 1% BSA in PBST was used to block the plate. Each well was then filled with 200 nmol/L biotinylated PD-1 and FITC-labeled PPL-C peptides (at final concentrations of 40, 20, 10, 5, or 2.5 μmol/L) before 1.5 hours incubating at room temperature. After two PBST washes, the relative FITC fluorescence intensity was measured using a Cytation 3 instrument. […] After two PBST washes, the Cytation 3 device was used to detect PE fluorescence intensity. […] Samples were analyzed by flow cytometry.
For orientation: ELISA stands for enzyme-linked immunosorbent assay.

In series [2] the test system is splenic lymphocyte subsets of CT26-bearing Balb/c mice. The series is described as follows: Flow cytometry of spleen lymphocytes of CT26-bearing mice after treatment. The following applies: CT26-bearing Balb/c mice, 14 days after treatment; Figure 5D. In kind it is in vivo. The protocol:
(§1) The mice’s tumor volumes were measured by calipers after they were randomly allocated to various treatment groups. Every day tumor volumes were measured along axes (a and b) that are orthogonal to one another, and they were estimated by the equation tumor volume = π/6 × a × b^2. After the tumor was established (approximately 7 days), each group was subcutaneously injected with PPL-C (6 or 11 mg/kg), control peptide (11 mg/kg), endotoxin-free PD-L1 antibody (200 μg), or control antibody, following specific treatment procedures outlined in the flow chart. The Kaplan-Meier technique was used to determine survival differences for each group, and the log-rank test using the survival R package version 2.38-3 was applied to get the overall p-value.
To differentiate lymphocytes, spleen monocytes were separated via isodensity centrifugation. For flow cytometry evaluation, cell-surface and intracellular staining was achieved through reagents from BD Biosciences or Biolegend, following previously described protocols. Re-suspending the 1× 10^6 cells in 100 μL of PBS before incubating them with the appropriate antibodies. Data were collected using a BD Biosciences FACSCalibur flow cytometer, Germany, and analyzed using FlowJo 7.6 software, USA. Based on scatter signals and 7-Amino-actinomycin D fluorescence, dead cells, and cell debris were removed from the study.
Background: A flow cytometer gives signals particle by particle.

Series [3] has as its system CT26 tumor. The format is in vivo, mouse. The following applies: reduced dose, s.c. around the tumor every day or every other day, n = 6, P<0.001. The method, then:
The investigators conducting the animal studies were not blinded. […] The mice were then randomized into different treatment groups.
as §1

Residues, ends and D or L forms follow the SMILES beside them. No end group written: not given here. *: point of attachment. FITC = O=C1OC2(c3ccc(O)cc3Oc3cc(O)ccc32)c2ccc(NC(=S)*)cc21

T1 sequence (Q9NZQ7 19-239 limits assumed): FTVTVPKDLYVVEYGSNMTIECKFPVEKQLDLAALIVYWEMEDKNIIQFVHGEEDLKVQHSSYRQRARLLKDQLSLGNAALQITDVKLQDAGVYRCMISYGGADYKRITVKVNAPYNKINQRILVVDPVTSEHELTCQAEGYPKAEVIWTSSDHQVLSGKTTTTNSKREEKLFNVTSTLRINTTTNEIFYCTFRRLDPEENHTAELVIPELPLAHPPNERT

Take SHESWLPAYVLGSGGGSK-NH2 [PL-20]: the “Competition with PD-1 to bind PD-L1 (blocking of PD-L1/PD-1)” value in series [1] is “blocked moderately”.

On to “SMQYADHPVNTGGGGSK-NH2 [Control peptide, scrambled control peptide, reference compound]”, for which the “Percentage of NK cells in spleen (CD49b/Nkp46, upper right quadrant)” value in series [2] came out at 10.80%. The “Survival time of CT26 tumor-bearing mice” value in series [3] stood at 53 days.

`CC[C@H](C)[C@H](NC(=O)[C@H](Cc1c[nH]c2ccccc12)NC(=O)[C@H](CO)NC(=O)[C@@H](NC(=O)[C@H](Cc1c[nH]cn1)NC(=O)[C@@H](N)CO)[C@@H](C)O)C(=O)N[C@@H](CC(C)C)C(=O)N[C@@H](Cc1ccc(O)cc1)C(=O)NCC(=O)N[C@@H](CCC(=O)O)C(=O)N[C@H](C(=O)NCC(=O)N[C@@H](Cc1c[nH]c2ccccc12)C(=O)NCC(=O)NCC(=O)NCC(=O)N[C@@H](CO)C(=O)N[C@@H](CCCCNC(=S)Nc1ccc2c(c1)C(=O)OC21c2ccc(O)cc2Oc2cc(O)ccc21)C(N)=O)[C@@H](C)O` [PL-8] (H-SHTSWILYGETGWGGGSK(FITC)-NH2; N-terminus assumed): the “Competition with PD-1 to bind PD-L1 (blocking of PD-L1/PD-1)” value in series [1] is “blocked moderately”.

The values above are taken from article PMC11091243, “PD-L1 targeted peptide demonstrates potent antitumor and immunomodulatory activity in cancer immunotherapy” (Frontiers in Immunology, 2024).
